Target: T1, Acetolactate synthase, chloroplastic (Arabidopsis thaliana, UniProt P17597)
T1 sequence (P17597 whole entry): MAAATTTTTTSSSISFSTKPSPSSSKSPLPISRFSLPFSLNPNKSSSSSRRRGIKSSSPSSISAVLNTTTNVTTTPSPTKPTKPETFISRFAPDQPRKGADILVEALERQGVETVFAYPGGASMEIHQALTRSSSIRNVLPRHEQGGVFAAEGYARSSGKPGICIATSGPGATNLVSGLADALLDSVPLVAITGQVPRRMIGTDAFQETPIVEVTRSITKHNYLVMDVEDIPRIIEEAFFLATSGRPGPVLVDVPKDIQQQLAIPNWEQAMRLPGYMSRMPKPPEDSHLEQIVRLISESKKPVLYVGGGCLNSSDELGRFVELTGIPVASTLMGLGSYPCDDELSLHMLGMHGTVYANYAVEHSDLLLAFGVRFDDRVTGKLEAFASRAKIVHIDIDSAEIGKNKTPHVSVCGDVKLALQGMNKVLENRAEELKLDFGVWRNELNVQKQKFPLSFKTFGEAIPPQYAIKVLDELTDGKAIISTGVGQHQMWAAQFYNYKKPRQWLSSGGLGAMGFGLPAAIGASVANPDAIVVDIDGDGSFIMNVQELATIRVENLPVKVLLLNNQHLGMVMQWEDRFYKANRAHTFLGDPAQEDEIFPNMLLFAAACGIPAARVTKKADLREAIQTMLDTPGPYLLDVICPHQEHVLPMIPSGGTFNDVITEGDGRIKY
Settings: not given

In order of falling Ki:
1. Cc1nc(SSc2ccccc2[N+](=O)[O-])n[nH]1  5.57 µM
2. Cc1ccc(SSc2nc[nH]n2)cc1  4.69 µM
3. COC(=O)c1ccccc1S(=O)(=O)NC(=O)Nc1nccc(C)n1 [MONOSULFURON ESTER]  0.26 µM

Tested on: Brassica rapa subsp. oleifera
Assay: Herbicidal activity against Brassica rapa subsp. oleifera assessed as Brassica rapa subsp. oleifera root growth inhibition at 100 mg/L
Type: functional
Settings: read-out: GI

In order of rising inhibition of growth at 100 µg/mL:
1. Cc1nc(SSc2ccc3ccccc3c2)n[nH]1  0%
2. O=[N+]([O-])c1ccccc1SSc1n[nH]c(-c2ccccc2)n1  0%
3. Cc1ccc(SSc2n[nH]c(-c3ccc(C)cc3)n2)cc1  0%
4. CCOC(=O)c1ccccc1SSc1n[nH]c(-c2ccc(C)cc2)n1  0%
5. Cc1ccc(-c2nc(SSc3ccccc3[N+](=O)[O-])n[nH]2)cc1  0%
6. CCOC(=O)c1ccccc1SSc1n[nH]c(-c2ccncc2)n1  0%
7. O=[N+]([O-])c1ccccc1SSc1n[nH]c(-c2ccncc2)n1  0%
8. COc1ccc(SSc2n[nH]c(-c3ccncc3)n2)cc1  0%
9. Clc1ccc(SSc2n[nH]c(-c3ccncc3)n2)cc1  0%
10. Cc1ccc(SSc2n[nH]c(-c3cccnc3)n2)cc1  0%
11. COC(=O)c1ccccc1SSc1n[nH]c(-c2cccnc2)n1  0%
12. CCOC(=O)c1ccccc1SSc1n[nH]c(-c2cccnc2)n1  0%
13. Clc1ccc(SSc2n[nH]c(-c3cccnc3)n2)cc1  0%
14. Cc1ccc(SSc2n[nH]c(-c3ccncc3)n2)cc1  6.9%
15. COC(=O)c1ccccc1SSc1n[nH]c(C)n1  10.6%
16. COc1ccc(SSc2n[nH]c(-c3ccc(C)cc3)n2)cc1  11%
17. Cc1nc(SSc2ccccc2F)n[nH]1  13%
18. COc1ccc(SSc2n[nH]c(-c3cccnc3)n2)cc1  14.3%
19. c1ccc2cc(SSc3nc[nH]n3)ccc2c1  16.3%
20. Cc1nc(SSc2ccc(Br)cc2)n[nH]1  17.6%
21. CCOC(=O)c1ccccc1SSc1nc[nH]n1  21.1%
22. Cc1nc(SSc2ccc(Cl)cc2)n[nH]1  24.1%
23. Cc1ccc(-c2nc(SSc3ccc(Cl)cc3)n[nH]2)cc1  24.1%
24. CCOC(=O)c1ccccc1SSc1n[nH]c(C)n1  26.6%
25. O=[N+]([O-])c1ccccc1SSc1n[nH]c(-c2cccnc2)n1  27.4%
26. Brc1ccc(SSc2nc[nH]n2)cc1  27.4%
27. COc1ccc(SSc2n[nH]c(C)n2)cc1  28.3%
28. COc1ccc(SSc2n[nH]c(-c3ccccc3)n2)cc1  29.4%
29. COC(=O)c1ccccc1SSc1n[nH]c(-c2ccncc2)n1  30.5%
30. CCOC(=O)c1ccccc1SSc1n[nH]c(-c2ccccc2)n1  34.3%
31. Cc1nc(SSc2ccccc2C)n[nH]1  36.8%
32. Clc1ccc(SSc2n[nH]c(-c3ccccc3)n2)cc1  37.5%
33. Cc1ccccc1SSc1nc[nH]n1  43.6%
34. COc1ccc(SSc2nc[nH]n2)cc1  44.6%
35. COC(=O)c1ccccc1SSc1n[nH]c(-c2ccc(C)cc2)n1  44.9%
36. Fc1ccccc1SSc1nc[nH]n1  47.2%
37. Clc1ccc(SSc2nc[nH]n2)cc1  50.2%
38. COC(=O)c1ccccc1SSc1n[nH]c(-c2ccccc2)n1  52.8%
39. Cc1ccc(-c2nc(SSc3ccccc3)n[nH]2)cc1  54.1%
40. COC(=O)c1ccccc1SSc1nc[nH]n1  54.8%
41. Cc1nc(SSc2ccccc2[N+](=O)[O-])n[nH]1  59.6%
42. Cc1ccc(SSc2n[nH]c(C)n2)cc1  62.5%
43. c1ccc(SSc2n[nH]c(-c3cccnc3)n2)cc1  66.2%
44. Cc1ccc(SSc2nc[nH]n2)cc1  67.5%
45. Cc1nc(SSc2ccccc2)n[nH]1  69.4%
46. O=[N+]([O-])c1ccccc1SSc1nc[nH]n1  69.8%
47. c1ccc(SSc2n[nH]c(-c3ccncc3)n2)cc1  70.2%
48. c1ccc(SSc2n[nH]c(-c3ccccc3)n2)cc1  81.7%
49. c1ccc(SSc2nc[nH]n2)cc1  86.6%
50. Cc1ccc(SSc2n[nH]c(-c3ccccc3)n2)cc1  87.5%
51. COC(=O)c1ccccc1S(=O)(=O)NC(=O)Nc1nccc(C)n1 [MONOSULFURON ESTER]  88.5%

Target: Acetolactate synthase, chloroplastic (Arabidopsis thaliana, UniProt P17597, W574L)
Settings: not given

In order of rising Ki:
1. COC(=O)c1ccccc1S(=O)(=O)NC(=O)Nc1nccc(C)n1 [MONOSULFURON ESTER]  8.53 µM
2. Cc1ccc(SSc2nc[nH]n2)cc1  25.7 µM
3. Cc1nc(SSc2ccccc2[N+](=O)[O-])n[nH]1  27.1 µM
4. CC(C)C1(C)N=C(c2nc3ccccc3cc2C(=O)O)NC1=O (stereo not drawn) [IMAZAQUIN]  470 µM

Reference: ChEMBL document CHEMBL3045482, “Synthesis, crystal structure, in vitro acetohydroxyacid synthase inhibition, in vivo herbicidal activity, and 3D-QSAR of new asymmetric aryl disulfides” (J Agric Food Chem, 2012)
